According to paper PMC7318308, “A Novel Synthetic Dual Agonistic Liposomal TLR4/7 Adjuvant Promotes Broad Immune Responses in an Influenza Vaccine With Minimal Reactogenicity” (Frontiers in Immunology, 2020):
“Also recorded” adds a separate entry of the source. Like-named read-outs stand apart in the source and are kept apart here.

Tests used:
mouse TLR4 = biological target: T1, mouse TLR4 (Mus musculus, UniProt Q9JHF9+Q9QUK6); experiment: TLR4/NF-κB reporter cell assay (SEAP), HEK-Blue mTLR4; type: cell-based; details: for EC50: 20 h, 2-fold serial dilutions from 10 μM, NF-κB SEAP, read-out: EC50 on mTLR4 reporter cells; for murine TLR4 agonistic activity (in words): AUC normalized to 2B110 as 100%, Figure 1C
T1 construct: host or cells: HEK-Blue mTLR4 (HEK293-derived NF-κB/SEAP reporter cells)
T1 sequence (Q9QUK6 26-835): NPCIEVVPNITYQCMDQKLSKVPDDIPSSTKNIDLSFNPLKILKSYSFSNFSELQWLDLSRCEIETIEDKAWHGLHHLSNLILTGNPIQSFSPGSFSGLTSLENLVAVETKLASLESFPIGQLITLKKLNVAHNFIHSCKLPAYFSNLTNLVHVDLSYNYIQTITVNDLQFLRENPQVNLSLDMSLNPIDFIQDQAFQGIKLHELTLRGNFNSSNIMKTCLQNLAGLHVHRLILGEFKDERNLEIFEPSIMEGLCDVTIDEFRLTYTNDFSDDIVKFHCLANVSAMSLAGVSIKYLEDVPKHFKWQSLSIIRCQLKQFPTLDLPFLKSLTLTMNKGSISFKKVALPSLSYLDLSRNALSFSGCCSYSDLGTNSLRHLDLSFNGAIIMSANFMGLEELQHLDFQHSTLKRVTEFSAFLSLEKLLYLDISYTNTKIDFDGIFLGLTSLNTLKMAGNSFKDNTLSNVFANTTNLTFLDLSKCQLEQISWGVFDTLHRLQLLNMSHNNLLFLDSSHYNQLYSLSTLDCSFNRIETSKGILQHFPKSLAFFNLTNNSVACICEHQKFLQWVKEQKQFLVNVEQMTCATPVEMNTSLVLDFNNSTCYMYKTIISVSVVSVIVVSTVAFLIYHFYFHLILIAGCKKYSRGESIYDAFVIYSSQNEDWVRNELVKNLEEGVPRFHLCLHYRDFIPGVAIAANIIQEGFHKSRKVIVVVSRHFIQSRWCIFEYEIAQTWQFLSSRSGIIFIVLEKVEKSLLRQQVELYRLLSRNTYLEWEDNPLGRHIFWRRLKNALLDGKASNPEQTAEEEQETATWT
T1 sequence (Q9JHF9 19-160): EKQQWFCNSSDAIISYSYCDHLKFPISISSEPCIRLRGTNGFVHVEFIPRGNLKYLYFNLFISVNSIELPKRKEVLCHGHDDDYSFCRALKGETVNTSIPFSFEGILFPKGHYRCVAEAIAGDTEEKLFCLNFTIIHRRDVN
Method: (§1) Figure 1 Structure-activity relationship studies in TLR4 agonistic pyrimidoindoles. (A) Syntheses of C8-alkynyl and C8-alkyl analogs. (B) Syntheses of C8-aryl analogs. (C) Scatter plot of hTLR4 and mTLR4 agonistic activity in TLR4-NF-κB HEK reporter cells (HEK-Blue™ hTLR4 and HEK-Blue™ mTLR4, respectively). NF-κB inducible NF-κB SEAP levels in culture supernatants were measured according to manufacturer's protocol. The TLR4 agonistic potency was evaluated as area under the curve (AUC) calculated for dose response curve using 2-fold serial dilutions from 10 μM, and normalized to the AUC for 2B110 as 100% on both axes. […] The color of each point is based on cell viability in TLR4-NF-κB reporter cells for compounds evaluated at 5 μM concentration. Viability data was normalized to vehicle control (Vehicle OD570−650 = 0.58 ± 0.01). (D) Structures of the lead compounds with differences at C8 substitution highlighted in blue.
(§2) Titration curves of 1Z105 and derivatives were used to assess their potency in stimulating human and mouse TLR4 response using HEK NF-κB reporter cells (HEK-Blue™ hTLR4 and mTLR4, respectively). The areas under the curve for dose response curves relative to vehicle (0.5% DMSO) were normalized to the greatest activity as 100% of 2B110 for both assays (Figure 1C). The compounds were also tested for in vitro toxicity by MTT assay (Figure 1C, Supplementary Figure 1).
(§3) TLR4/NF-κB activation was assessed using HEK-Blue™ hTLR4 and HEK-Blue™ mTLR4 (InvivoGen). The cells were treated with 1Z105 and 2B182C (2-fold serial dilutions starting from 10 μM) for 20 h. NF-κB inducible secreted embryonic alkaline phosphatase (SEAP) protein in the culture supernatant was measured according to manufacturer's protocol. To evaluate cell viability, 0.5 mg/mL 3-[4,5-dimethylthiazol-2-yl]-2,5-dipheyl tetrazolium bromide (MTT, Thermo Fisher Scientific) solution was added to each well and incubated at 37°C. Six hours later, formazan crystals were lysed with lysis buffer (15% SDS and 0.12% 12 N HCl) and the absorbance was measured at 570 nm using 650 nm as a reference with a plate reader (Tecan, Switzerland).

mBMDCs [1] = experiment: IL-12 and IL-6 production in mouse BMDCs (ELISA); type: cell-based
Method: (§4) Human PBMC (10^6 cells/mL) were treated with 5 μM 1Z105 and 2B182C overnight and the culture supernatant assessed for human IL-8 by ELISA. Mouse BMDCs (10^6 cells/mL) were incubated with serially diluted compounds (2-fold dilution from 5 μM). 0.5% DMSO was used as vehicle. IL-12 and IL-6 levels in the supernatant were measured by ELISA. ELISA was performed as previously described ([57]). Reagents and dilution factors of antibodies are described in Supplementary Table 1.

[2] = test system: HEK-Blue mTLR4 reporter cells; experiment: MTT cell viability, murine TLR4 reporter cells; type: cell-based; details: dose response, % viability normalized to vehicle (0.5% DMSO)
Method: as §3
(§5) Human TLR4 reporter cells Murine TLR4 reporter cells
(§6) [Compound] 1 μM 10 [Compound] 1 μM 10
(§7) Supplementary Figure 1. Dose response curves for cell viability (toxicity) of lead compounds in human and murine TLR4-NF-κB reporter cells. Cellular toxicity evaluated by MTT assay is presented as % viability normalized to vehicle (0.5% DMSO) as 100%. While 1Z105 had minimal toxicity in both hTLR4 and mTLR4 reporter cells (HEK-BlueTM hTLR4 and HEK-BlueTM mTLR4, […]
(§8) (also on this page, place not known: %Relative (Normalized 100%) 101101 viability vehicle as to)

[3] = test system: HEK-Blue hTLR4 reporter cells; experiment: MTT cell viability, human TLR4 reporter cells; type: cell-based; details: dose response, % viability normalized to vehicle (0.5% DMSO)
Method: as §3, §5, §6, §7, §8

mBMDCs [4] = experiment: CD40 and CD86 expression on BMDCs (flow cytometry); type: cell-based, mouse; details: 1 μM, 20 h; compared to 1Z105
Method: Detailed information for reagents used in flow cytometry analysis are shown in Supplementary Table 2. For co-stimulatory molecules on mBMDCs, mBMDCs (10^6 cells/mL) were incubated with 1 μM 1Z105 and 2B182C for 20 h. 0.5% DMSO was uses as vehicle. After removing the supernatant, cells were washed with the stain buffer (BD Biosciences, San Diego, CA) and incubated with anti-mouse CD16/32 antibody for blocking FcR. Cells were then stained with an antibody cocktail with anti-CD40 and anti-CD86 antibodies for 20–30 min at 4°C. For analysis of lymphocytes harvested from draining lymph nodes, two antibody cocktails were prepared; (1) anti-CD3, anti-CD4, anti-PD-1, and anti-CXCR5 antibodies for Tfh cell analysis, (2) anti-CD3, anti-CD19, anti-CD95, anti-CD138, and anti-GL7 antibodies for B cell analysis. After blocking with anti-CD16/CD32 antibody, 2 × 10^6 cells were stained in each antibody cocktail. For Tfh cell analysis, after staining with primary antibodies, cells were washed with PBS, and incubated with streptavidin-PE. Cells were then washed and stained with propidium iodide to determine live/dead cells. Data were acquired using MACSQuant Analyzer 10 (Miltenyi Biotec, Germany) and analyzed using FlowJo (version 10.6.1, Becton Dickinson, Ashland, OR).

[5] = test system: IIAV A/California/04/2009 (H1N1)pdm09 HA and NA; experiment: Prime-boost vaccination model with IIAV, serum anti-HA/anti-NA IgG ELISA; type: in vivo, BALB/c mice; details: i.m. IIAV 10 μg + adjuvant days 0 and 21, sera day 28; 1V270 1 nmol, TLR4 ligand 200 nmol/injection
human TLR4 = biological target: T2, human TLR4 (Homo sapiens, UniProt O00206+Q9Y6Y9); experiment: TLR4/NF-κB reporter cell assay (SEAP), HEK-Blue hTLR4; type: cell-based; details: for human TLR4 agonistic activity (in words): AUC normalized to 2B110 as 100%, Figure 1C
T2 construct: host or cells: HEK-Blue hTLR4 (HEK293-derived NF-κB/SEAP reporter cells)
Method: as §1, §2, §3

[6] = test system: TLR4-NF-κB reporter cells; experiment: MTT cell viability in TLR4-NF-κB reporter cells; type: cell-based; details: 10 µM, MTT, Supplementary Figure 1
Method: as §1, §3

hPBMCs = experiment: IL-8 release from human PBMC (ELISA); type: cell-based; details: 5 μM, overnight; compared to 1Z105
Method: as §4

[7] = Mus musculus, BMDC, read-out: EC50 for IL-6 production in mBMDCs, 2-fold dilution from 5 μM
[8] = Mus musculus, BMDC, read-out: EC50 for IL-12 production in mBMDCs, 2-fold dilution from 5 μM

T2 sequence (O00206 24-839): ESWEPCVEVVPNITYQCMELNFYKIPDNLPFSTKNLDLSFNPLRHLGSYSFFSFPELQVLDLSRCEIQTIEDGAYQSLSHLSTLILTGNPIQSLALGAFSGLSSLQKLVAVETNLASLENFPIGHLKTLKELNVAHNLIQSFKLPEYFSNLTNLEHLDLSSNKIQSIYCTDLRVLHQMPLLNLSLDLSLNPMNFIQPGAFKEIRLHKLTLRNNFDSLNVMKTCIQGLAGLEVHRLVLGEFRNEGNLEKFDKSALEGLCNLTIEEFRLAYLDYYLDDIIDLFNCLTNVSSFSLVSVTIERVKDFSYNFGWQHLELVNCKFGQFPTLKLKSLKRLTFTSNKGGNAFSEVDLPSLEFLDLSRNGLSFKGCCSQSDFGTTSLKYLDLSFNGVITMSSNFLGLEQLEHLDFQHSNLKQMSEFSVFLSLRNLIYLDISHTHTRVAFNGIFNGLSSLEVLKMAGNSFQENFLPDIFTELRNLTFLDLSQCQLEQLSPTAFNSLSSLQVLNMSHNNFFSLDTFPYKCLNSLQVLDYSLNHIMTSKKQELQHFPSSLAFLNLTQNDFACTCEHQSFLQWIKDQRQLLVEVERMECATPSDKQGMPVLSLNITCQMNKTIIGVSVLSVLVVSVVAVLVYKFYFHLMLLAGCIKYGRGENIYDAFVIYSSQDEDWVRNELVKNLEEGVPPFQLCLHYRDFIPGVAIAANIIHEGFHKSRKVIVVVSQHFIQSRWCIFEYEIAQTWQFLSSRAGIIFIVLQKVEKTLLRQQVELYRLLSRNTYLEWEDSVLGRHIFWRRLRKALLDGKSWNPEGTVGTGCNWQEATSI
T2 sequence (Q9Y6Y9 17-160 limits assumed): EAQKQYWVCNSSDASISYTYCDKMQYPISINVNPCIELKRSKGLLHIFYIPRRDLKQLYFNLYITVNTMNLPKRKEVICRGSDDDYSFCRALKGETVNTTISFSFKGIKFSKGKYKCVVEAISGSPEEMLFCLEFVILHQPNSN

`Cn1c2ccccc2c2nc(SCC(=O)NC3CCCCC3)n(-c3ccccc3)c(=O)c21` [1Z105, N-cyclohexyl-2-((5-methyl-4-oxo-3-phenyl-4,5-dihydro-3H-pyrimido[5,4-b]indol-2-yl)thio)acetamide] showed an EC50 (mouse TLR4) of 7490 nM, an EC50 (mBMDCs [1]; [7]) of 630 nM and an EC50 (mBMDCs [1]; [8]) of 770 nM. For the same compound, the “toxicity, mTLR4 reporter cells (in words)” value [2] was “minimal” and the “toxicity, hTLR4 reporter cells (in words)” value [3] was “minimal”.

`Cn1c2ccc(-c3ccco3)cc2c2nc(SCC(=O)NC3CCCCC3)n(-c3ccccc3)c(=O)c21` [2B182C] was tested, and the EC50 (mouse TLR4) was 1650 nM, the “murine TLR4 agonistic activity (in words)” value (mouse TLR4) was “high TLR4 stimulatory potency” and the “murine TLR4 agonistic activity (in words)” value (mouse TLR4; listed as 8s) was “potency equivalent to that of compound 2B110”. For the same compound, the “fold more potent than 1Z105, mTLR4 reporter line” value (mouse TLR4; ratio of EC50) was 4 fold, the EC50 (mBMDCs [1]; [7]) was 160 nM and the EC50 (mBMDCs [1]; [8]) was 200 nM. The EC50 (mBMDCs [1]; read-out: EC50 for IL-6 production in mBMDCs, 2-fold dilution from 5 μM) was 120 nM, the “CD40 expression on mBMDCs (in words)” value (mBMDCs [4]) was “significantly higher expression levels” and the “CD86 expression on mBMDCs (in words)” value (mBMDCs [4]) was “significantly higher expression levels”. The “serum anti-HA IgG1 (in words)” value [5] was “significantly increased; also recorded: higher serum anti-HA and anti-NA IgG1 levels compared to 1Z105”, the “serum anti-NA IgG1 (in words)” value [5] was “significantly increased; also recorded: higher serum anti-HA and anti-NA IgG1 levels compared to 1Z105” and the “serum anti-NA IgG2a (in words)” value [5] was “enhanced”. The EC50 (human TLR4; 20 h, 2-fold serial dilutions from 10 μM, NF-κB SEAP, read-out: EC50 on hTLR4 reporter cells) was 1660 nM, the “human TLR4 agonistic activity (in words)” value (human TLR4) was “high TLR4 stimulatory potency” and the “human TLR4 agonistic activity (in words)” value (human TLR4; listed as 8s) was “potency equivalent to that of compound 2B110”. For the same compound, the “fold more potent than 1Z105, hTLR4 reporter cells” value (human TLR4; ratio of EC50) was “approximately 800 fold”, the “toxicity at 10 µM (in words)” value [6] was “exhibited toxicity” and the “IL-8 secretion by hPBMCs (in words)” value (hPBMCs) was “higher level of IL-8 secretion”.
